In PubChem BioAssay AID2060511 (Molecular Pharmacology Branch, DTP, NCI, 2025):

Tested on: 422866-222-R5-J1-PDC spheroids with HUVEC/MSC, viability
Assay: Anticancer human tumor 422866-222-R5-J1-PDC patient-derived pancreatic adenocarcinoma cell line growth inhibition [GQUAD]
Settings: for IC50: curve of first compound; for viability, T/C: stronger effect = lower value
Summary of the method: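 Viability of tumor cells grown as complex spheroids with endothelial and stromal cells, exposed to drug combinations. Top concentration at or near clinical Cmax (else 10 microM), diluted in half-log increments.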
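Also: spheroids exposed to compounds for seven days before reading.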
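For viability, T/C in this document: percent viability relative to DMSO vehicle control taken as 100%.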

COc1ncnc(C2CC2)c1-c1ncc2cnn(Cc3ccc(-c4nc(C(F)(F)F)cn4C(C)C)cc3)c2n1 + Cc1cnc(CNC(=O)c2c(=O)c3ccc(N4CCCN(C)CC4)nc3n3c2sc2ccccc23)cn1
IC50 (second compound 0.0316 µM): > 10 µM
IC50 (second compound 0.1 µM): > 10 µM
IC50 (second compound 0.316 µM): > 10 µM
IC50 (second compound 1 µM): > 10 µM
IC50 (second compound 3.16 µM): > 10 µM
IC50 (second compound 10 µM): > 10 µM
viability, T/C (second compound 0.0316 µM, first compound 0.0316 µM): 86.6%
viability, T/C (second compound 0.0316 µM, first compound 0.1 µM): 79.2%
viability, T/C (second compound 0.0316 µM, first compound 0.316 µM): 84.4%
viability, T/C (second compound 0.0316 µM, first compound 1 µM): 74.3%
viability, T/C (second compound 0.0316 µM, first compound 3.16 µM): 91.5%
viability, T/C (second compound 0.0316 µM, first compound 10 µM): 93.6%
viability, T/C (second compound 0.1 µM, first compound 0.0316 µM): 99.4%
viability, T/C (second compound 0.1 µM, first compound 0.1 µM): 74.7%
viability, T/C (second compound 0.1 µM, first compound 0.316 µM): 82.9%
viability, T/C (second compound 0.1 µM, first compound 1 µM): 88.8%
viability, T/C (second compound 0.1 µM, first compound 3.16 µM): 101%
viability, T/C (second compound 0.1 µM, first compound 10 µM): 86.5%
viability, T/C (second compound 0.316 µM, first compound 0.0316 µM): 84.4%
viability, T/C (second compound 0.316 µM, first compound 0.1 µM): 72.4%
viability, T/C (second compound 0.316 µM, first compound 0.316 µM): 78.8%
viability, T/C (second compound 0.316 µM, first compound 1 µM): 80.4%
viability, T/C (second compound 0.316 µM, first compound 3.16 µM): 93.2%
viability, T/C (second compound 0.316 µM, first compound 10 µM): 94%
viability, T/C (second compound 1 µM, first compound 0.0316 µM): 63%
viability, T/C (second compound 1 µM, first compound 0.1 µM): 80.1%
viability, T/C (second compound 1 µM, first compound 0.316 µM): 84.3%
viability, T/C (second compound 1 µM, first compound 1 µM): 85.4%
viability, T/C (second compound 1 µM, first compound 3.16 µM): 82.3%
viability, T/C (second compound 1 µM, first compound 10 µM): 98.8%
viability, T/C (second compound 3.16 µM, first compound 0.0316 µM): 71.8%
viability, T/C (second compound 3.16 µM, first compound 0.1 µM): 80.4%
viability, T/C (second compound 3.16 µM, first compound 0.316 µM): 82.7%
viability, T/C (second compound 3.16 µM, first compound 1 µM): 71.9%
viability, T/C (second compound 3.16 µM, first compound 3.16 µM): 98.1%
viability, T/C (second compound 3.16 µM, first compound 10 µM): 98%
viability, T/C (second compound 10 µM, first compound 0.0316 µM): 70.3%
viability, T/C (second compound 10 µM, first compound 0.1 µM): 80.7%
viability, T/C (second compound 10 µM, first compound 0.316 µM): 88.6%
viability, T/C (second compound 10 µM, first compound 1 µM): 72.8%
viability, T/C (second compound 10 µM, first compound 3.16 µM): 84.7%
viability, T/C (second compound 10 µM, first compound 10 µM): 88.2%
